According to patent EP0214933A2, “Mixture preparations for the treatment of malaria” (CIBA-GEIGY AG, priority 1985, dated 1987):
Where two headings read alike, the source gives them in different places.

Legend:
[1] = test system: Plasmodium falciparum T96 Zellinie A; assay: Growth inhibition of chloroquine-sensitive P. falciparum cultured in human erythrocytes; format: cell-based; conditions: for IC20 / IC50: Plasmodium falciparum, Erythrocyte; for IC50: over 2 cycles
Excerpt: (§1) • a) Durch konventionelles Züchten des Stammes Plasmodium falciparum T96 in einer 2 % (V/V) Suspension von humanen Erythrozyten wird der Grundorganismus-Zellinie A fortgepflanzt, welche eine normale Empfindlichkeit gegenüber Chloroquin aufweist. • b) Zellinie A des obigen Stammes wird unter analogen Standardbedingungen wie unter a) gezüchtet, jedoch mit Zusatz von immer ansteigenden Konzentrationen von Chloroquin, bis eine Chloroquinresistente Zellinie B resultiert, welche weiterhin in Kulturmedien mit einer 500 nM-Konzentration von Chloroquin andauernd normales Wachstum (dieselbe Wachstumsraten wie Zellinie A) aufweist.
(§2) • I. Die Züchtung von Testorganismen erfolgt unter den für Züchtung von Plasmodien üblichen Bedingungen auf einer 2 % Suspension von humanen Erythrozyten, supplementiert mit 50 mg/1 Hypoxanthin und gegebenenfalls unter Zugabe der getesteten Hemmsubstanz in gewünschter Konzentration. Die initiale Parasitämie (- der prozentuelle Anteil der zu Beginn von Plasmodien infizierten Erythrozyten) beträgt 1-2 %. Das Resultat (Hemmwirkung) wird als IC50 ausgewertet, d.h. jene Konzentration des Wirkstoffes, die eine Senkung der finalen Parasitämie um 50 %, d.h. eine 50%ige Hemmung des Wachstums, verursacht. • II. In einer alternativen Versuchsanordnung wird beim Einhalten aller übrigen Bedingungen ohne Zugabe von Hypoxanthin und mit einer initialen Parasitämie von 0,5 % gearbeitet.

P. vinckei = conditions: cited from earlier work
[2] = test system: Plasmodium falciparum T96 Chloroquinresistente Zellinie B; assay: Growth inhibition of chloroquine-resistant P. falciparum cultured in human erythrocytes; format: cell-based; conditions: for IC50: Plasmodium falciparum, Erythrocyte, over 2 cycles
Excerpt: as §1, §2

[3] = test system: Plasmodium falciparum in Kultur an menschlichen Erythrozyten; conditions: culture on human erythrocytes; cited from earlier work

Q: Which IC20 ([1]; Versuchsanordnung I, Hauptversuch II, read-out: IC20) does the source give for CC(=O)N(O)CCCCCNC(=O)CCC(=O)N(O)CCCCCNC(=O)CCC(=O)N(O)CCCCCN [Desferrioxamin B (Mesylat)] here?
A: Its IC20 is 9000 nM.

Q: What does the source list for CC(=O)N(O)CCCCCNC(=O)CCC(=O)N(O)CCCCCNC(=O)CCC(=O)N(O)CCCCCN [Desferrioxamin B, 6,17,28-Trihydroxy-7,10,18,21,29-pentaoxo-6,11,17,22,28-pentaaza-triacontanylamin]?
A: Wachstum des Parasiten (P. vinckei; 0,2 g/kg): deutlich hemmt; Wachstum des Parasiten (P. vinckei; 1,0 g/kg): vollständig tötet; IC50 ([2]; Versuchsanordnung I, without chloroquine in the test medium): 6000 ± 1500 nM; IC50 ([2]; Versuchsanordnung II, without chloroquine in the test medium): 2000 ± 1000 nM; Konzentration für dieselbe Wachstumshemmung in the presence of chloroquine ([2]; in the presence of a chloroquine concentration inactive by itself, compared with no chloroquine): halbiert sich noch weiter; Konzentration für dieselbe Wachstumshemmung, resistant strain compared with sensitive strain ([2]; without chloroquine, compared with normally sensitive strain under the same conditions): etwa dreimal niedrigeren Konzentration; Wachstum (in vitro) [3]: nicht nur in ihrem Wachstum gehemmt, sondern auch getötet; IC50 ([1]; Versuchsanordnung I, read-out: IC50): 17000 ± 3000 nM; IC50 ([1]; Versuchsanordnung II, read-out: IC50): 5000 ± 2000 nM

Q: With CCN(CC)CCCC(C)Nc1ccnc2cc(Cl)ccc12 (stereo not drawn) [Chloroquin, 7-Chlor-4-(4-diethylamino-l-methylbutylamino)chinolin] as the compound, how does the IC50 ([2]; Versuchsanordnung I) read?
A: Its IC50 is roughly 800 nM.

Q: And the Vermehrungsfaktor ([2]; Versuchsanordnung I, with 500 nM chloroquine in the medium, same as Zellinie A without chloroquine (within 48 hours))?
A: The Vermehrungsfaktor was 7-9.

Q: What about the IC20 [1] of the same compound?
A: The IC20 was 10 nM.

Q: And the IC50 ([1]; Versuchsanordnung I (50 mg/l hypoxanthine, initial parasitaemia 1-2 %))?
A: The IC50 was 50 nM.

Q: And the IC50 ([1]; Versuchsanordnung II (no hypoxanthine, initial parasitaemia 0,5 %))?
A: Its IC50 is 10 to 15 nM.

Q: For COc1ncnc(NS(=O)(=O)c2ccc(N)cc2)c1OC [Sulfadoxine], which “Wachstumshemmung (result in words)” value ([1]; Hauptversuch II with this substance in place of chloroquine, combined with Desferrioxamin B) is on record?
A: Its value is “Analoge Resulte”.
